Values joined by “and” are separate entries in the source; they are usually repeats but may differ in a detail not shown here. Identical values can stand only once. Counter-ions that a name gives are not always drawn.
Assay: Food and acidic beverage effect on bioavailability of ATR-101 tablets, 3-way crossover plasma PK study
Format: in vivo, human
Settings: single oral 500 mg; for kel: in h-1
Description: To evaluate the effects of food and of an acidic beverage on bioavailability of ATR-101 tablets prepared according to Example 2 (see Table 2), an open-label, randomized, 3-period, 3-way crossover, 3-sequence study was carried out with fourteen healthy, adult, non-tobacco using male and female (non-childbearing potential only) human subjects.
Three different treatments A, B, and C were administered as follows:
Treatment A: 500 mg ATR-101 (1×500 mg tablet) administered with water at Hour 0 on Day 1 following an overnight fast.
Treatment B: 500 mg ATR-101 (1×500 mg tablet) administered with water at Hour 0, 30 minutes after the start of a high-fat breakfast, on Day 1.
Treatment C: 500 mg ATR-101 (1×500 mg tablet) administered with Coca-Cola® Classic at Hour 0 on Day 1 following an overnight fast.
On Day 1 of Period 1, subjects were randomized to one of 3 treatment sequences: ABC, BCA, or CBA. For Treatments A and B, ATR-101 was administered orally with approximately 240 mL of water. For Treatment C, ATR-101 was administered orally with approximately 240 mL of Coca-Cola® Classic. Water (except water provided with dosing for Treatments A and B) was restricted 1 hour prior to and 1 hour after each study drug administration, but was allowed ad libitum at all other times. Other fluids were given as part of the standard meals (including the breakfast administered prior to study drug dosing for Treatment B) and/or snacks, but were restricted at all other times (except for the Coca-Cola® Classic beverage provided with dosing in Treatment C) throughout the confinement period.
For Treatments A and C, subjects fasted overnight for at least 10 hours prior to study drug administration and continued the fast for at least 4 hours post-dose.
For Treatment B, subjects were required to fast overnight for at least 10 hours until 30 minutes prior to study drug administration, when they were given breakfast which was entirely consumed within 30 minutes. A representative breakfast includes 2 slices of buttered toast, 2 fried eggs, 2 strips of bacon, 4 oz of hash brown potatoes, and 240 mL of whole milk.
On Day 1 of each period, a standard lunch and dinner was provided at approximately 4 and 9 hours post-dose, respectively, and a snack was also offered at approximately 12 hours post-dose. On other days when confined in the CRU, standard meals and/or snacks were provided at appropriate times. When confined, subjects were required to fast from all food and drink except water between meals and snacks served at the clinical research unit.
Each meal and/or snack served at the clinical research unit was standardized and was similar in caloric content and composition (except for the meal served as part of Treatment B) and was taken at approximately the same time in each period.
For all subjects, blood samples for the determination of ATR-101 plasma concentration were collected at pre-dose and 0.5, 1, 1.5, 2, 2.5, 3, 3.5, 4, 5, 6, 8, 12, 16, 24, 36, and 48 hours post-dose. PK parameters for plasma ATR-101 were calculated as follows: • AUC0-t: The area under the plasma concentration-time curve, from time 0 to the last measurable non-zero concentration, was calculated by the linear trapezoidal method. • AUC0-inf: The area under the plasma concentration-time curve from time 0 extrapolated to infinity. AUC0-inf was calculated as the sum of AUC0-t plus the ratio of the last measurable plasma concentration to the elimination rate constant. • AUC%extrap: Percent of AUC0-inf extrapolated, represented as
[formula] • Cmax: Maximum observed concentration. • tmax: Time to reach Cmax. If the maximum value occurred at more than one time point, tmax was defined as the first time point with this value. • ke1: Apparent first-order terminal elimination rate constant calculated from a semi-log plot of the plasma concentration versus time curve. […]

[1] = Treatment A (fasting with water), Maximum
[2] = Treatment A (fasting with water), Mean
[3] = Treatment A (fasting with water), Median
[4] = Treatment A (fasting with water), Minimum
[5] = Treatment A (fasting with water), individual subject, hydrochloride
[6] = Treatment B (fed with water), Maximum
[7] = Treatment B (fed with water), Mean
[8] = Treatment B (fed with water), Median
[9] = Treatment B (fed with water), Minimum
[10] = Treatment B (fed with water, high-fat breakfast), individual subject, hydrochloride
[11] = Treatment C (fasting with acidic beverage), Maximum
[12] = Treatment C (fasting with acidic beverage), Mean
[13] = Treatment C (fasting with acidic beverage), Median
[14] = Treatment C (fasting with acidic beverage), Minimum

`CC(C)c1cccc(C(C)C)c1NC(=O)NCC1(c2ccc(N(C)C)cc2)CCCC1` [ATR-101, N-(2,6-bis(1-methylethyl)phenyl)-N′-((1-(4-(dimethylamino)-phenyl)cyclopentyl)methyl)urea hydrochloride] showed an AUC0-inf [1] of 5050 ng·h/mL, an AUC0-t [1] of 4860 ng·h/mL and an AUC% extrap [1] of 12.7%. The Cmax [1] was 933 ng/mL, the t1/2 [1] was 22.7 h and the tmax [1] was 12.0 h. The kel [1] was 0.0612, the AUC% extrap [2] was 8.64% and the kel [2] was 0.0406. The AUC% extrap [3] was 9.43%, the kel [3] was 0.0380 and the AUC0-inf [4] was 2430 ng·h/mL. It also gave an AUC0-t [4] of 840 ng·h/mL, an AUC% extrap [4] of 3.72% and a Cmax [4] of 26.1 ng/mL. For the same compound, the t1/2 [4] was 11.3 h, the tmax [4] was 1.50 h and the kel [4] was 0.0305. The AUC0-inf [5] was 2740 and 4290 and 2630 and 2430 and 5050 and 2560 and 4700 and 4940 and 4370, the AUC0-t [5] was 2450 and 3180 and 3810 and 2490 and 840 and 2200 and 4860 and 2330 and 1520 and 4100 and 4400 and 3880 and the AUC% extrap [5] was 10.6% and 6.68% and 11.2% (2×) and 5.32% and 9.43% and 3.72% and 8.82% and 12.7% and 4.61% and 10.8%. For the same compound, the Cmax [5] was 509 ng/mL and 620 ng/mL and 807 ng/mL and 26.1 ng/mL and 612 ng/mL and 539 ng/mL and 306 ng/mL and 526 ng/mL and 486 ng/mL and 933 ng/mL and 842 ng/mL, the tmax [5] was 2.5 h and 1.50 h and 12.0 h and 1.5 h and 3.00 h and the kel [5] was 0.0378 and 0.0414 and 0.0347 and 0.0456 and 0.0380 and 0.0612 and 0.0404 and 0.0317 and 0.0531 and 0.0305 and 0.0318. It also gave an AUC0-inf [6] of 14000 ng·h/mL, an AUC0-t [6] of 13200 ng·h/mL and an AUC% extrap [6] of 17.9%. It also gave a Cmax [6] of 2060 ng/mL, a t1/2 [6] of 30.7 h and a tmax [6] of 5.00 h. The kel [6] was 0.0603, the AUC% extrap [7] was 8.00% and the kel [7] was 0.0364. For the same compound, the AUC% extrap [8] was 7.27%, the kel [8] was 0.0366 and the AUC0-inf [9] was 3790 ng·h/mL. It also gave an AUC0-t [9] of 3520 ng·h/mL, an AUC% extrap [9] of 2.07% and a Cmax [9] of 719 ng/mL. For the same compound, the t1/2 [9] was 11.5 h, the tmax [9] was 1.50 h and the kel [9] was 0.0226. The AUC0-inf [10] was 3790 and 6400 and 14000 and 5390 and 4540 and 7640 and 9000 and 7660 and 7670 and 5830 and 5820 and 4900 and 9990 and 7210, the AUC0-t [10] was 3520 and 5930 and 13200 and 5280 and 4120 and 6890 and 8430 and 6810 and 6290 and 5420 and 5310 and 4740 and 9300 and 6570 and the AUC% extrap [10] was 7.07% and 7.35% and 5.87% and 2.07% and 9.33% and 9.87% and 6.38% and 1.1% and 17.9% and 7.19% and 8.76% and 3.35% and 6.89% and 8.80%. The Cmax [10] was 1040 ng/mL and 1620 ng/mL and 2060 ng/mL and 1120 ng/mL and 848 ng/mL and 1340 ng/mL and 2000 ng/mL and 1210 ng/mL and 931 ng/mL and 719 ng/mL and 759 ng/mL and 1690 ng/mL and 993 ng/mL, the t1/2 [10] was 19.3 h and 20.9 h and 16.9 h and 11.5 h and 25.1 h and 27.8 h and 18.0 h and 24.9 h and 30.7 h and 17.4 h and 23.9 h and 13.2 h and 17.7 h and 18.6 h and the tmax [10] was 1.50 h and 2.50 h and 3.00 h and 5.00 h and 4.01 h and 3.57 h. The kel [10] was 0.0359 and 0.0332 and 0.0410 and 0.0603 and 0.0276 and 0.0249 and 0.0385 and 0.0278 and 0.0226 and 0.0398 and 0.0290 and 0.0526 and 0.0392 and 0.0374, the AUC0-inf [11] was 6970 ng·h/mL and the AUC0-t [11] was 6430 ng·h/mL. It also gave an AUC% extrap [11] of 21.5%, a Cmax [11] of 1550 ng/mL and a t1/2 [11] of 27.9 h. For the same compound, the tmax [11] was 6.00 h, the kel [11] was 0.0501 and the AUC% extrap [12] was 10.6%. The kel [12] was 0.0377, the AUC% extrap [13] was 8.95% and the kel [13] was 0.0376. It also gave an AUC0-inf [14] of 728 ng·h/mL, an AUC0-t [14] of 572 ng·h/mL and an AUC% extrap [14] of 3.84%. For the same compound, the Cmax [14] was 19.8 ng/mL and the t1/2 [14] was 13.8 h.

From patent US20220117919A1, “ENHANCED BIOAVAILABILITY OF N-(2,6-BIS(1-METHYLETHYL)PHENYL)-N'-((1-(4-(DIMETHYLAMINO)-PHENYL)CYCLOPENTYL)METHYL)UREA HYDROCHLORIDE” (The Regents of the University of Michigan, priority 2015, published 2022)
